Measured values from patent US7872134B2, “2-{[2-(substituted amino)ethyl]sulfonyl}ethyl N,N-bis(2-chloroethyl)phosphorodiamidates” (Telik, Inc., priority 2007, dated 2011).

What was measured:
[1] = test system: DLD-1 (colorectal adenocarcinoma); assay: Cytotoxicity/Growth Inhibition Assay (CellTiter-Glo); type: cell-based; conditions: Homo sapiens, 96 h, DLD-1 cells, hydrochloride salts, cultured 4 days
Procedure: The following examples illustrate the beneficial effect of the compounds of this invention against human cancer cell lines in vitro.
The human cancer cell line DLD-1 (colorectal adenocarcinoma) was obtained from the American Type Culture Collection, Manassas, Va., U.S.A. The CellTiter-Glo assay kit was obtained from Promega Corporation, Madison, Wis., U.S.A. All products were used in accordance with manufacturer's directions. All assays were conducted in triplicate wells, with dimethyl sulfoxide (DMSO) solvent control. The extent of cell growth was expressed as a percentage of the signal from the solvent control wells.
Log-phase cells were trypsinized, collected by centrifugation, and resuspended in a small volume of fresh medium, and the density of viable cells was determined following Trypan Blue staining. Cells were diluted in fresh media (3×10^3 cells/mL for DLD-1), and added at 150 μL/well to 96-well plates, and incubated for several hours to allow attachment in the case of adherent cells. […] After incubation for 10 minutes at room temperature, and the plate was read with a luminometer.

MIA PaCa-2 tumor = assay: MiaPaCa-2 Xenograft Assay, Intraperitoneal Administration; type: in vivo, athymic nu/nu mice; conditions: for tumor mass inhibition relative to vehicle: autopsy day 19 after transplantation
Procedure: Male athymic nu/nu mice, 6-8 weeks old (approximately 20 g), were implanted subcutaneously in the right fore flank with 20-30 mg pieces of MIA PaCa-2 tumor harvested from similar nu/nu mice that had previously been implanted with the MIA PaCa-2 tumor. […] A group of mice was treated with compound 1A as the hydrochloride salt dissolved in aqueous 5% dextrose, at 100 mg/Kg by intraperitoneal injection once/day for 5 consecutive days; with vehicle and cyclophosphamide (30 mg/Kg) also administered by intraperitoneal injection for the same time. Tumor mass was estimated from volume on days 10, 13, and 17; and measured at autopsy on day 19 after transplantation.

`N[C@@H](CCC(=O)N[C@@H](CS(=O)(=O)CCOP(=O)(N(CCCl)CCCl)N(CCCl)CCCl)C(=O)N[C@@H](C(=O)O)c1ccccc1)C(=O)O` [canfosfamide, reference compound] was tested, and the IC50 [1] was 11 µM.
With `CCN(CC)CCS(=O)(=O)CCOP(N)(=O)N(CCCl)CCCl` (centres unmarked) [compound 1A, 2-{[2-(diethylamino)ethyl]sulfonyl}ethyl N,N-bis(2-chloroethyl)phosphorodiamidate] the IC50 [1] was 13 µM, the “tumor mass inhibition relative to vehicle” value (MIA PaCa-2 tumor; 100 mg/Kg intraperitoneal once/day for 5 consecutive days, hydrochloride salt) was 83% and the “safety at the dose tested” value (MIA PaCa-2 tumor; nu/nu mice, 100 mg/Kg intraperitoneal once/day for 5 days) was “safe and non-toxic”.
With `O=P1(N(CCCl)CCCl)NCCCO1` (centres unmarked) [cyclophosphamide, reference compound] the “tumor mass inhibition relative to vehicle” value (MIA PaCa-2 tumor; 30 mg/Kg intraperitoneal once/day for 5 consecutive days) was 84%.
